# Source: US6676932B2, “Ultraviolet absorbent, photostabilizer, ultraviolet ray-absorbing composition, photostabilized composition and external preparation for skin” (Shiseido Co., Ltd., priority 2001, dated 2004)
# Experiments:
# Type in all cases: physicochemical
# [1] = Drug stabilization effect blended with sequestering agent (Test Examples 372 to 391); set-up: key to Appearance (visual determination): ◯: no change; Δ: almost no change; x: change; settings: daylight exposure (80 MJ)
# Description: Then, the photostabilization effect of the pyridazine derivative in combination with sequestering agents on each drug and the change of the appearance of each composition were examined, by using the following formulation for assessment.
# (§1) For observation of the change of the appearance of each test sample (determination based on visual observation) and the measurement of the remaining ratio by liquid chromatography before and after daylight exposure (80 MJ), the test sample was prepared.
# [2] = Dye stabilization effect in blend with sequestering agents (Test Examples 212 to 275); settings: daylight exposure (80 MJ)
# Description: Each test sample was prepared for observation of the change of the appearance of each test sample (determined visually) and measurement of the color difference (ΔE) before and after daylight exposure (80 MJ).
# (§2) With a spectrophotometer, the color was measured on the Lab coordinate system, to calculate the color difference on the basis of the color before daylight exposure. More specifically, the color difference (ΔE) was calculated on the basis of the measured values (L1, a1, b1) before daylight exposure.
# [3] = Dye stabilization effect under daylight exposure (Test Examples 6-91); set-up: key to Δ E: color difference ΔE in Lab vs. color before daylight exposure; key to Appearance (visual determination): ◯: no change; Δ: almost no change; x: change; settings: photostabilizer 0.05 wt %, daylight exposure (80 MJ)
# Description: For observation of the change of the appearance of each test sample (determination based on visual observation) and the measurement of color difference (ΔE) before and after daylight exposure (80 MJ), the test sample was prepared.
# as §2
# [4] = Stabilization effect on perfume under daylight exposure (Test Examples 92 to 181); set-up: key: ◯: no change; Δ: almost no change; x: change; settings: daylight exposure (80 MJ)
# Description: Each test sample was prepared for observation of the change of the odor of the test sample (determined by perfume coordinator) before and after daylight exposure (80 MJ).
# [5] = Drug stabilization effect under daylight exposure (Test Examples 182 to 211); set-up: key to Appearance (visual determination): ◯: no change; Δ: almost no change; x: change; settings: photostabilizer 0.05 wt %, daylight exposure (80 MJ); for Remaining ratio (%): liquid chromatography
# Description: as §1
# [6] = drug Glycyrrhizinic acid dipotassium 0.05, sequestering agent blend amount 0.03, photostabilizer 0
# [7] = drug L-ascorbic acid 2-glucoside 2.0, sequestering agent blend amount 0.03, photostabilizer 0
# [8] = drug dibutylhydroxy toluene 0.01, sequestering agent blend amount 0.03, photostabilizer 0
# [9] = dye Blue 1 (Brilliant Blue FCF) 0.001, sequestering agent 0.05 alone, photostabilizer 0
# [10] = dye Red 227 (Acid Fuchsine D) 0.0001, sequestering agent 0.02 alone, photostabilizer 0
# [11] = drug dl-α-tocopherol 2-L-ascorbic acid phosphate diester potassium salt 0.01, sequestering agent blend amount 0.03, photostabilizer 0
# [12] = dye Blue 1 (Brilliant Blue FCF) 0.0001 wt %
# [13] = dye Green 3 (Fast Green FCF) 0.001 wt %
# [14] = dye Red 227 (Acid Fuchsine D) 0.0001 wt %
# [15] = dye Yellow 5 (Sunset Yellow FCF) 0.001 wt %
# [16] = dyes Yellow 203 (Quinoline Yellow WS) 0.0001 + Yellow 5 (Sunset Yellow FCF) 0.0001 wt %
# [17] = base perfume Fruity, photostabilizer 0.1 wt %
# [18] = natural perfume Nelori oil, photostabilizer 0.1 wt %
# [19] = synthetic perfume Limonene oil, photostabilizer 0.05 wt %
# [20] = drug L-ascorbic acid 2-glucoside 2.0 wt %
# [21] = dyes Red 213 (Rhodamine B) 0.00001 + Blue 1 (Brilliant Blue FCF) 0.00001 wt %
# [22] = dyes Red 227 (Acid Fuchsine D) 0.0001 + Yellow 5 (Sunset Yellow FCF) 0.0001 wt %
# [23] = drug dl-α-tocopherol 2-L-ascorbic acid phosphate diester potassium salt 0.01 wt %
# [24] = drug Dipotassium glycyrrhizinate 0.05 wt %
# [25] = dyes Red 106 (Acid red) 0.00001 + Yellow 203 (Quinoline Yellow WS) 0.0001 wt %
molecule,measurement,setting,value
sodium metaphosphate,Appearance (visual determination),[1]; [6],x
same,Remaining ratio (%),[1]; [6],85.8%
same,Appearance (visual determination),[1]; [7],x
same,Remaining ratio (%),[1]; [7],85.2%
same,Appearance (visual determination),[1]; [8],x
same,Remaining ratio (%),[1]; [8],54.7%
same,Δ E,[2]; [9],7.78
same,Δ E,"[2]; dye Green 3 (Fast Green FCF) 0.001, sequestering agent 0.1 alone, photostabilizer 0",1.77
same,Δ E,[2]; [10],1.37
same,Δ E,"[2]; dye Yellow 5 (Sunset Yellow FCF) 0.0001, sequestering agent 0.03 alone, photostabilizer 0",1.68
same,Δ E,"[2]; dyes Red 227 (Acid Fuchsine D) 0.0001 + Yellow 203 (Quinoline Yellow WS) 0.0001, sequestering agent blend amount 0.02, photostabilizer 0",3.01
same,Δ E,"[2]; dyes Red 401 (Violanin R) 0.0001 + Green 3 (Fast Green FCF) 0.00001, sequestering agent blend amount 0.03, photostabilizer 0",4.23
same,Δ E,"[2]; dyes Yellow 203 (Quinoline Yellow WS) 0.0001 + Yellow 5 (Sunset Yellow FCF) 0.0001, sequestering agent blend amount 0.01, photostabilizer 0",1.44
O=C([O-])CN(CCO)CCN(CC(=O)[O-])CC(=O)[O-].[Na+].[Na+].[Na+] [ethylenediaminehydroxyethyl trisodium triacetate],Appearance (visual determination),[1]; [11],x
same,Remaining ratio (%),[1]; [11],70.1%
same,Δ E,[2]; [9],7.63
same,Δ E,[2]; [10],1.43
same,Δ E,"[2]; dyes Red 106 (Acid Red) 0.00001 + Yellow 203 (Quinoline Yellow WS) 0.0001, sequestering agent blend amount 0.02, photostabilizer 0",3.56
same,Δ E,"[2]; dyes Red 213 (Rhodamine B) 0.00001 + Blue 1 (Brilliant Blue FCF) 0.00001, sequestering agent blend amount 0.03, photostabilizer 0",3.85
"c1cc(N2CCOCC2)nnc1N1CCOCC1 [3,6-Dimorpholinopyridazine]",Appearance (visual determination),[3]; [12],◯
same,Δ E,[3]; [12],1.25
same,Appearance (visual determination),[3]; [13],◯
same,Δ E,[3]; [13],0.44
same,Appearance (visual determination),[3]; [14],◯
same,Δ E,[3]; [14],0.53
same,Appearance (visual determination),[3]; [15],◯
same,Δ E,[3]; [15],0.51
same,Appearance (visual determination),[3]; [16],◯
same,Δ E,[3]; [16],0.40
same,Appearance (visual determination),"[1]; drug dibutylhydroxy toluene 0.01, no sequestering agent, photostabilizer blend amount 0.03",Δ
same,Appearance (visual determination),"[1]; drug dibutylhydroxy toluene 0.01, with sodium metaphosphate 0.03, photostabilizer blend amount 0.03",◯
same,odor determination,[4]; [17],◯
same,odor determination,[4]; [18],◯
same,odor determination,[4]; [19],◯
same,Δ E,"[2]; dyes Red 213 (Rhodamine B) 0.00001 + Blue 1 (Brilliant Blue FCF) 0.00001, no sequestering agent, photostabilizer blend amount 0.02",1.98
same,Δ E,"[2]; dyes Red 213 (Rhodamine B) 0.00001 + Blue 1 (Brilliant Blue FCF) 0.00001, with ethylenediaminehydroxyethyl trisodium triacetate 0.03, photostabilizer blend amount 0.02",1.32
same,Appearance (visual determination),[5]; [20],◯
same,Remaining ratio (%),[5]; [20],98.5%
"Oc1cc(N2CCCCC2)cnn1 [3-Hydroxy-5-piperidinopyridazine, 3-hydroxy-5-piperidinopyridazine]",Appearance (visual determination),[3]; [12],◯
same,Δ E,[3]; [12],1.28
same,Appearance (visual determination),[3]; [13],◯
same,Δ E,[3]; [13],0.45
same,Appearance (visual determination),[3]; [14],◯
same,Δ E,[3]; [14],0.52
same,Appearance (visual determination),[3]; [15],◯
same,Δ E,[3]; [15],0.53
same,Appearance (visual determination),[3]; [21],◯
same,Δ E,[3]; [21],1.01
same,Appearance (visual determination),[3]; [22],◯
same,Δ E,[3]; [22],0.68
same,Appearance (visual determination),"[1]; drug dl-α-tocopherol 2-L-ascorbic acid phosphate diester potassium salt 0.01, no sequestering agent, photostabilizer blend amount 0.03",Δ
same,Appearance (visual determination),"[1]; drug dl-α-tocopherol 2-L-ascorbic acid phosphate diester potassium salt 0.01, with ethylenediaminehydroxyethyl Triacetate trisodium 0.03, photostabilizer blend amount 0.03",◯
same,odor determination,"[4]; base perfume Rose, photostabilizer 0.05 wt %",◯
same,odor determination,"[4]; base perfume Woody, photostabilizer 0.1 wt %",◯
same,odor determination,"[4]; natural perfume Lavender oil, photostabilizer 0.1 wt %",◯
same,odor determination,"[4]; natural perfume Rose oil, photostabilizer 0.05 wt %",◯
same,odor determination,"[4]; synthetic perfume Citral, photostabilizer 0.1 wt %",◯
same,odor determination,"[4]; synthetic perfume Linalyl acetate, photostabilizer 0.1 wt %",◯
same,Δ E,"[2]; dye Blue 1 (Brilliant Blue FCF) 0.001, photostabilizer 0.02, no sequestering agent",1.74
same,Δ E,"[2]; dye Blue 1 (Brilliant Blue FCF) 0.001, photostabilizer 0.02, with ethylenediaminehydroxyethyl trisodium triacetate 0.05",0.54
same,Δ E,"[2]; dye Blue 1 (Brilliant Blue FCF) 0.001, photostabilizer 0.02, with ethylenediaminetetraacetate trisodium 0.05",0.78
same,Δ E,"[2]; dye Blue 1 (Brilliant Blue FCF) 0.001, photostabilizer 0.02, with sodium metaphosphate 0.05",0.88
same,Δ E,"[2]; dyes Red 106 (Acid Red) 0.00001 + Yellow 203 (Quinoline Yellow WS) 0.0001, no sequestering agent, photostabilizer blend amount 0.01",1.08
same,Δ E,"[2]; dyes Red 106 (Acid Red) 0.00001 + Yellow 203 (Quinoline Yellow WS) 0.0001, with ethylenediaminehydroxyethyl trisodium triacetate 0.02, photostabilizer blend amount 0.01",0.72
same,Appearance (visual determination),[5]; [23],◯
same,Remaining ratio (%),[5]; [23],98.7%
same,Appearance (visual determination),[5]; drug salicylic acid 0.1 wt %,◯
same,Remaining ratio (%),[5]; drug salicylic acid 0.1 wt %,98.5%
"OCCNc1ccc(NCCO)nn1 [3,6-Bis(2-hydroxyethylamino)pyridazine, 3,6-bis(2-hydroxyethylamino)pyridazine]",Appearance (visual determination),[3]; [12],◯
same,Δ E,[3]; [12],1.38
same,Appearance (visual determination),[3]; [13],◯
same,Δ E,[3]; [13],0.63
same,Appearance (visual determination),[3]; [14],◯
same,Δ E,[3]; [14],0.64
same,Appearance (visual determination),[3]; [15],◯
same,Δ E,[3]; [15],0.66
same,Appearance (visual determination),[3]; [16],◯
same,Δ E,[3]; [16],0.47
same,odor determination,[4]; [17],◯
same,odor determination,[4]; [18],◯
same,odor determination,[4]; [19],◯
same,Appearance (visual determination),[5]; [24],◯
same,Remaining ratio (%),[5]; [24],98.8%
same,Appearance (visual determination),[5]; [20],◯
same,Remaining ratio (%),[5]; [20],98.8%
"Oc1nnccc1N1CCOCC1 [3-Hydroxy-4-morpholinopyridazine, 3-hydroxy-4-morpholinopyridazine]",Appearance (visual determination),[3]; [12],◯
same,Δ E,[3]; [12],1.26
same,Appearance (visual determination),[3]; [13],◯
same,Δ E,[3]; [13],0.48
same,Appearance (visual determination),[3]; [14],◯
same,Δ E,[3]; [14],0.60
same,Appearance (visual determination),[3]; [15],◯
same,Δ E,[3]; [15],0.62
same,Appearance (visual determination),[3]; [25],◯
same,Δ E,[3]; [25],0.80
same,odor determination,[4]; [17],◯
same,odor determination,"[4]; base perfume Muge, photostabilizer 0.05 wt %",◯
same,odor determination,"[4]; base perfume Spicy, photostabilizer 0.2 wt %",◯
same,odor determination,"[4]; natural perfume Jasmine oil, photostabilizer 0.05 wt %",◯
same,odor determination,"[4]; synthetic perfume Rose oxide, photostabilizer 0.2 wt %",◯
same,Δ E,"[2]; dyes Red 401 (Violanin R) 0.0001 + Blue 1 (Brilliant Blue FCF) 0.00001, no sequestering agent, photostabilizer blend amount 0.02",1.34
same,Δ E,"[2]; dyes Red 401 (Violanin R) 0.0001 + Blue 1 (Brilliant Blue FCF) 0.00001, with ethylenediaminetetraacetate trisodium 0.03, photostabilizer blend amount 0.02",0.91
same,Appearance (visual determination),[5]; [24],◯
same,Remaining ratio (%),[5]; [24],99.2%
